The numbers were not newly measured in patent US20100267730A1, “NOVEL COMPOUNDS” (priority 2008, published 2010), which cites them from elsewhere.

One data set concerns freely-feeding rats. The settings on record: central administration, 4 hour time period.
A further data set deals with orexin receptors. As to conditions: central administration at the onset of the normal sleep period, rat sleep/EEG.

With “orexin-A: ligand (agonist) of the orexin receptors; human Orexin-A amino acid sequence SEQ ID NO: 1 (EPLPDCCRQKTCSCRLYELLHGAGNHAAGILTL; Homo sapien)”, the “increase in food intake over control rats receiving vehicle” value in the data set with freely-feeding rats is listed as “approximately four-fold”. The effect on arousal result in the data set on orexin receptors was “dose-related increase in arousal”.
